Measurements reported in patent publication US10801023B2, “Methods of identifying biologically active random peptides in plants and libraries of plants expressing candidate biologically active random peptides” (University of Florida Research Foundation, Inc., priority 2015, dated 2020).

What was measured:
[1] = tested on: Arabidopsis thaliana plants; experiment: Screening of library of transformed plants expressing candidate BARPs for new phenotypes; type: in vivo; details: for new phenotype associated with the BARP: plant of the library from which the BARP sequence was isolated; for phenotype: transgenic Arabidopsis thaliana expressing the BARP, scored from emergence to senescence
From the text: In the present example, the methods of the present disclosure were used to generate a library of test nucleic acids encoding a plurality of candidate BARPs, each having a core 6 amino acid random peptide sequence flanked by two cysteine residues. The sequences were also flanked by start and stop codons and Gateway® sequences, such as illustrated in FIG. 1. PCR was used with primers corresponding to the known Gateway flanking sequences to generate the test nucleic acid library. The oligonucleotides were then cloned into bacterial vectors including genes for kanamycin resistance to create a recombination vector library. The vectors were then moved to Agrobacterium tumefaciens strain […] and used to transform Arabidopsis thaliana plants. Seeds were collected from the transformed plants and used to grow new plants. These plants were observed from seedling through the plant lifecycle and observed for new phenotypes. Several new phenotypes emerged, DNA was extracted from the plants displaying new phenotypes, and the sequence of the candidate BARP from the plants was determined. The procedures and results are described in detail below.
The test nucleic acid sequences were synthesized using conserved initiator and terminator sequences flanking 18 random nucleotides, which provides a peptide that is ten amino acids long, with six of the core amino acids randomized, following a Met-Ala-Cys and ending with a Cys-term. This template is illustrated in FIG. 1. In the present example, the corresponding nucleic acid sequence was […] (SEQ ID NO: 5; nucleotides 14-46 of SEQ ID NO: 1). The cysteine residues in this case provide potential for formation of disulfide bonds that may impart additional structure to the adjacent amino acid loop. Although in this example 18 random nucleotides (identified as “N” in SEQ ID NOs: 1 and 5) were used, any number may be used, as long as it is a multiple of three.
To construct the library of random-core BARP sequences, the above DNA sequence was synthesized as an oligonucleotide sequence, along with flanking sequences corresponding to the Gateway® recombination sequences. The middle portion of the sequence, represented by “N” in FIG. 1, were randomized nucleotides. Known synthesis techniques were used to build the sequences, resulting in a library of PCR products containing test nucleic acid sequences (start codon, spacer codon, cysteine codon, 18 random nucleotides encoding a core candidate BARP sequence, second cysteine codon, and stop codon) flanked by Gateway recombination sequences. Although Gateway® sequences were used in the present examples, other recombination cloning primer sequences could be used or specifically designed.
The library of PCR products containing random test sequences was amplified using PCR based on flanking primers containing Gateway recombination sequences. These reactions produced a population of PCR products each containing the core peptide test sequence flanked by Gateway recombination sequences. These PCR products were introduced to the vector pDONR222 using Gateway recombination, and then transformed into E. coli genotype DH5α. The transformation vector also included the NPTII gene for kanamycin resistance. The E. coli cells were plated on kanamycin plates at low density to obtain single-colony separation. The single colonies each contained a separate plasmid bearing a random peptide sequence.
The colonies were recovered from plates in liquid medium, and the plasmids were isolated. The isolated plasmids represented a library of many independent, random sequences (encoding candidate BARPs) flanked by ‘start’ and ‘stop’ sequences. […]

[2] = tested on: Arabidopsis plants; experiment: Plant growth and phenotyping of PEP6 / PEP12 transgenic plants; type: in vivo, Arabidopsis thaliana; details: transgenic plant in soil; normal-sized plants 25 mm to 30 mm
From the text: Two libraries encoding six- and twelve-random amino acid cyclized peptides (denoted PEP6 and PEP12, respectively) were constructed in binary vectors (as illustrated in FIG. 9) using a Gateway cloning strategy and transformed into Arabidopsis. More than 1,500 transgenic plants with the PEP6 T-DNA inserts were isolated and more than 600 transgenic plants were isolated carrying the PEP12 insert, representing a survival ratio of 1.8% and 1.2% respectively under kanamycin selection. To ensure library representation in the population, DNA was prepared from at least fifty transgenic plants, including ten that had small rosette diameter (5 mm to 10 mm) (e.g., those having BARP sequences SEQ ID NO: 14, 16, 6, 19, 21, 23, 26, 28, 30, and 32) compared to normal-sized plants (25 mm to 30 mm; see Table 2). The nucleotide sequences of all amplified random peptide open reading frames (rpORFs) were different, indicating representation of library diversity was maintained throughout the cloning and transformation process. Several phenotypes were visually apparent. […] Some plants showing multiple growth defects were recorded in each phenotype. Bolting plants with multiple inflorescences were transformed with the PEP6 or PEP12 destination library through the floral dipping method (Clough and Bent, 1998, incorporated herein by reference). For selection, seeds were surface sterilized by 70% ethanol for 5 min and 10% bleach for 20 min. Surface-sterilized seeds were plated on ½× MS basal medium with 0.5% Phyto Agar (cat. # M10200 and # A20300, Research Products International) and 50 μg/ml kanamycin for selection. Transgenic seedlings were identified by GFP expression or resistance to kanamycin. Transformed seedlings were grown to the 3-5 true leaf stage on plates and transferred to soil. DNA was extracted from each seedling (Edwards et al., 1991 incorporated herein by reference) for inserted nucleotide sequence identification. An approximately 500 bp DNA fragment containing the random peptide ORF and part of pK7WG2D vector sequence was amplified using primers PEP-F and PEP-R (SEQ ID NOs: 35 and 36, respectively) listed in Table 4 and sequenced. Arabidopsis plants were grown in soil at 20° C. under 16 hour light/8 hour dark conditions. The characterization of phenotypic variations was based on the comparison among seedlings grown in the same pot or flat.

[3] = tested on: Arabidopsis thaliana plants; experiment: Independent replication of peptide-induced phenotypes in independent transformant lines; type: in vivo; details: BARP sequence re-introduced into Arabidopsis thaliana
Procedure: A number of first-transformed generation plants were prepared and phenotypes were observed using the methods described in Example 1, above. In this example some 12-amino-acid-long candidate BARPs were also synthesized and tested. The procedures were the same as for the 6-aa BARPs described in Example 1. These phenotypes were also observed to be stable and inherited in subsequent generations. To verify that the effects observed are due to the expressed peptide and not to other less-likely positional/insertional causes, in this Example, a substantial number of the of the candidate 6 and 12 amino-acid-long BARPs were sequenced and separately transformed into independent plants. […] One microliter was used in a PCR reaction under standard conditions, and using primers corresponding to the attachment (recombinational cloning sequences) of the Gateway vector, the corresponding BARP sequences was amplified. This sequences were then recombined into the pDONR222 vector and then re-ligated into the binary pKWDG2 over-expression vector as described above. This sequence was then re-introduced into Arabidopsis thaliana plants using the floral dipping strategy and selection as noted above. The seedlings were then analyzed for the phenotype as defined by the original transformant. Recapitulation of the phenotype in multiple, independent transformation events provided high evidence of a specific physiological effect of the peptide.

[4] = tested on: Arabidopsis thaliana seedlings; experiment: Salt tolerance screen and root elongation on salt media; type: in vivo
Procedure: Also, to test for phenotypes not readily observable under normal conditions, seeds were collected from all plants in sets of nine and stored together, then planted and screened in various stress conditions to identify additional phenotypes. For example, seeds were planted on plant-growth media containing […] to screen for seedlings showing resistance to salt. Populations of BARP containing plants have also been grown in soil under water-deficit stress, leading to identification of peptides that confer tolerance to drought stress up on further evaluation.
Also, to test for phenotypes not readily observable under normal conditions, seeds were collected from all plants, stored, and later planted and screened in various stress conditions to identify additional phenotypes. […] Two lines thrived on the high-salt media, one of them resulting in a conspicuous root phenotype. […] The left-hand bars in the graph in FIG. 7A represent wild-type seedlings, and the right-hand bars show the effect of the peptide. Root elongation was measured four days after germination (Day 0) and then again at four-day intervals. Error bars represent standard error of the mean.

[5] = tested on: Arabidopsis seedlings; experiment: Inhibition of hypocotyl elongation under different light conditions; type: in vivo, Arabidopsis thaliana
Procedure: Seeds were surface sterilized using a brief treatment of 70% ethanol and then set to dry on sterile paper discs in a laminar flow hood. The seeds were placed on 1 mM KCl plus 1 mM CaCl2 media containing 1% Phyto Agar on 100 mm square plates and stratified for 48 h. The vertical plates were transferred to various light conditions of varying spectral quality and fluence rates (as described in FIGS. 12A-12B), or complete darkness. […] Plants grown in darkness were placed under one of the narrow bandwidth treatments wrapped in two layers of aluminum foil. After 96 h the plates were scanned and the seedlings were measured using ImageJ software, and the length of the seedlings was reported as a fraction of dark-grown seedling length.

In the case of “MACDFLADLC (chemically synthesized peptide sequence of BARP associated with bushy seedling phenotype) [SEQ ID NO: 3]”, the “new phenotype associated with the BARP” value [1] is reported as ““bushy” seedling with small and upright leaves”.

In the case of “MACGGGCSAC (chemically synthesized peptide sequence of BARP PEP6-46) [PEPB-46]”, the rosette size [2] is reported as 10 mm.

In the case of “MACGKGSGLC (chemically synthesized peptide sequence of BARP associated with purple pigment accumulation in seed pods) [SEQ ID NO: 2]”, the “new phenotype associated with the BARP” value [1] is reported as “hyperaccumulation of purple pigments in seed pods”.

For “MACKQAXQRC (chemically synthesized peptide sequence of BARP CBF6AA-85 associated with large, flat leaves and small petioles) [BARP; “X” represents a stop codon]”, the phenotype [1] was “tiny, curly leaves” and the “phenotype in independent transformant lines” value [3] was “large, flat leaves with small petioles”.

“MACNCSSDGC (chemically synthesized peptide sequence of BARP PEP6-27)” showed a rosette size [2] of 8 mm.

“MACPASVSVC (chemically synthesized peptide sequence of BARP 6AA-33.1 associated with salt resistance and elongated root growth) [PEP6-32, BARP associated with salt resistance, root growth and red light insensitivity]” was tested, and the salt tolerance ([4]; plant-growth media containing 100 μM NaCl) was “salt tolerance”, the root elongation ([4]; seedlings on vertical agar plates under light, versus wild-type) was “increase in root elongation” and the rosette size [2] was 27 mm. The “hypocotyl length versus controls” value ([5]; 0.5 μmol·m^−2·s^−1 blue light) was “slightly longer hypocotyls”, the “hypocotyl length versus controls” value ([5]; blue light, fluence rates of 2 and 10 μmol·m^−2·s^−1) was “differences were not observed” and the “hypocotyl length versus wild-type controls” value ([5]; constant red light, fluence rates of 1, 10 and 50 μmol·m^−2·s^−1, four lines) was “longer hypocotyls than wild-type controls”. For the same sequence, the “seedling growth versus wild-type” value ([5]; darkness) was “comparable to wild-type seedlings”, the “hypocotyl length versus controls” value ([5]; far red light conditions) was “No significant differences” and the “hypocotyl length versus other seedlings” value ([5]; white light) was “slightly longer hypocotyls”.

Sequence “MACPNACFSC (chemically synthesized peptide sequence of BARP PEP6-33)” has a rosette size [2] of 9 mm.

Work on “MACQELTMWC (chemically synthesized peptide sequence of BARP PEP6-30)” yielded a rosette size [2] of 10 mm.

With “MACQLMWREC (chemically synthesized peptide sequence of BARP PEP6-28)” the rosette size [2] was 8 mm.

Sequence “MACQQMLSGC (chemically synthesized peptide sequence of BARP PEP6-37)” has a rosette size [2] of 8 mm.

In the case of “MACSAHCSDC (chemically synthesized peptide sequence of BARP associated with abberrant seedling characteristics) [SEQ ID NO: 4, BARP associated with strange seedling characteristics]”, the “new phenotype associated with the BARP” value [1] is reported as “aberrant seedling characteristics”.

In the case of “MACSDVSVIC (chemically synthesized peptide sequence of BARP PEP6-38)”, the rosette size [2] is reported as 8 mm.

“MACWMSRMEC (chemically synthesized peptide sequence of BARP PEP6-12)” gave a rosette size [2] of 5 mm.

“MACWTSSVLC (chemically synthesized peptide sequence of BARP CBF6AA-110 associated with large, flat leaves and small petioles)” was tested, and the phenotype [1] was “tiny” and the “phenotype in independent transformant lines” value [3] was “large, flat leaves with small petioles”.

In the case of “MGCVCIEPYQRLRAKC (chemically synthesized peptide sequence of BARP 12AA-97 associated with arrested plant growth)”, the phenotype [1] is reported as “died late” and the “phenotype in independent transformant lines” value [3] is reported as “arrested plant growth”.
